Where “and” joins values, the source holds several entries; their conditions need not be identical. Equal values may be shown once. Toxic doses and inconclusive results are not listed. Rule as the data show it: active = T/C of 150% or more; inactive = T/C below 125%.
System: L1210 leukemia ip in BDF1 mice, survival T/C
Assay: NCI In Vivo Anticancer Drug Screen. Data for tumor model L1210 Leukemia (intraperitoneal) in B6D2F1 (BDF1) mice
Conditions: endpoint: mean survival time, higher = longer survival
Summary of the method: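 Survival endpoint. Drug-treated group vs vehicle group, expressed as T divided by C. Tumor passaged by transplantation.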

[1] = dose: 100.0 mg/kg/injection, schedule: Q04DX002 (ip), vehicle: saline with Tween-80
[2] = dose: 200.0 mg/kg/injection, schedule: Q04DX002 (ip), vehicle: saline with Tween-80
[3] = dose: 400.0 mg/kg/injection, schedule: Q04DX002 (ip), vehicle: saline with Tween-80
[4] = dose: 12.5 mg/kg/injection, schedule: Q01DX009 (ip), vehicle: Klucel (hydroxypropylcellulose) (HPC)

Measured: T/C

CNC(C)c1ccc(C)cc1 (stereo unspecified)
inactive: dose: 6.25 mg/kg/injection, schedule: Q01DX009 (ip), vehicle: saline 123 % of control | dose: 12.5 mg/kg/injection, schedule: Q01DX009 (ip), vehicle: saline 95 % of control | dose: 25.0 mg/kg/injection, schedule: Q01DX009 (ip), vehicle: saline 100 % of control

COc1cc(C(C)=O)ccc1OS(C)(=O)=O
inactive: dose: 20.0 mg/kg/injection, schedule: Q01DX009 (ip), vehicle: Klucel (hydroxypropylcellulose) (HPC) 100 % of control | dose: 20.0 mg/kg/injection, schedule: Q04DX003 (ip), vehicle: Klucel (hydroxypropylcellulose) (HPC) 106 % of control | dose: 40.0 mg/kg/injection, schedule: Q01DX009 (ip), vehicle: Klucel (hydroxypropylcellulose) (HPC) 98 % of control | dose: 40.0 mg/kg/injection, schedule: Q04DX003 (ip), vehicle: Klucel (hydroxypropylcellulose) (HPC) 93 % of control | dose: 80.0 mg/kg/injection, schedule: Q01DX009 (ip), vehicle: Klucel (hydroxypropylcellulose) (HPC) 96 % of control | dose: 80.0 mg/kg/injection, schedule: Q04DX003 (ip), vehicle: Klucel (hydroxypropylcellulose) (HPC) 98 % of control

COc1ccc(CSC(=S)Nc2ccc(Cl)c(Cl)c2)cc1
inactive: dose: 50.0 mg/kg/injection, schedule: Q04DX003 (ip), vehicle: saline 101 % of control | dose: 100.0 mg/kg/injection, schedule: Q04DX003 (ip), vehicle: saline 108 % of control | dose: 200.0 mg/kg/injection, schedule: Q04DX003 (ip), vehicle: saline 93 % of control

CCOc1ccccc1NC(=O)Oc1ccc(SC)c(C)c1
inactive: [1] 113 % of control | [2] 110 % of control | [3] 103 % of control

C=CCc1cnc(SCc2ccccc2)[nH]c1=O
inactive: dose: 100.0 mg/kg/injection, schedule: Q01DX001 (ip), vehicle: gum acacia 101 % of control | dose: 200.0 mg/kg/injection, schedule: Q01DX001 (ip), vehicle: gum acacia 91 % of control | dose: 400.0 mg/kg/injection, schedule: Q01DX001 (ip), vehicle: gum acacia 94 % of control

O=C(O)c1cccnc1C(=O)O.[Cu+2]
inactive: dose: 3.12 mg/kg/injection, schedule: Q01DX009 (ip), vehicle: Klucel (hydroxypropylcellulose) (HPC) 107 % of control | dose: 6.25 mg/kg/injection, schedule: Q01DX009 (ip), vehicle: Klucel (hydroxypropylcellulose) (HPC) 94 % of control | dose: 6.25 mg/kg/injection, schedule: Q04DX003 (ip), vehicle: Klucel (hydroxypropylcellulose) (HPC) 94 % of control and 95 % of control | dose: 12.5 mg/kg/injection, schedule: Q01DX001 (ip), vehicle: other 108 % of control | [4] 92 % of control | dose: 12.5 mg/kg/injection, schedule: Q04DX003 (ip), vehicle: Klucel (hydroxypropylcellulose) (HPC) 101 % of control and 97 % of control | dose: 25.0 mg/kg/injection, schedule: Q01DX001 (ip), vehicle: other 89 % of control | dose: 25.0 mg/kg/injection, schedule: Q04DX003 (ip), vehicle: Klucel (hydroxypropylcellulose) (HPC) 95 % of control

Oc1ccc(C2SC(c3ccc(O)cc3)SC(c3ccc(O)cc3)S2)cc1 (stereo unspecified)
inactive: dose: 200.0 mg/kg/injection, schedule: Q01DX001 (ip), vehicle: carboxymethylcellulose (CMC) 88 % of control | dose: 400.0 mg/kg/injection, schedule: Q01DX001 (ip), vehicle: carboxymethylcellulose (CMC) 88 % of control

[C-]#[N+]/C=C1\OC(=O)C=C1C
inactive: [1] 97 % of control | [2] 110 % of control | [3] 97 % of control

Nc1ncnc2c1ncn2C1SC(CO)C2OC21 (stereo unspecified)
inactive: dose: 25.0 mg/kg/injection, schedule: Q01DX001 (ip), vehicle: carboxymethylcellulose (CMC) 93 % of control | dose: 50.0 mg/kg/injection, schedule: Q01DX001 (ip), vehicle: carboxymethylcellulose (CMC) 96 % of control | dose: 100.0 mg/kg/injection, schedule: Q01DX001 (ip), vehicle: carboxymethylcellulose (CMC) 90 % of control | dose: 200.0 mg/kg/injection, schedule: Q01DX005 (ip), vehicle: saline 94 % of control

O=C(CNC(=O)Nc1cccc(Cl)c1Cl)N/N=C/c1cccc([N+](=O)[O-])c1
inactive: dose: 50.0 mg/kg/injection, schedule: Q01DX009 (ip), vehicle: saline with Tween-80 90 % of control | dose: 100.0 mg/kg/injection, schedule: Q01DX009 (ip), vehicle: saline with Tween-80 96 % of control | dose: 200.0 mg/kg/injection, schedule: Q01DX009 (ip), vehicle: saline with Tween-80 90 % of control

O=c1scc(-c2ccc(-c3ccccc3)cc2)s1
inactive: dose: 100.0 mg/kg/injection, schedule: Q04DX002 (ip), vehicle: Klucel (hydroxypropylcellulose) (HPC) 109 % of control | dose: 200.0 mg/kg/injection, schedule: Q04DX002 (ip), vehicle: Klucel (hydroxypropylcellulose) (HPC) 95 % of control | dose: 400.0 mg/kg/injection, schedule: Q04DX002 (ip), vehicle: Klucel (hydroxypropylcellulose) (HPC) 109 % of control

CCCc1c2cc(OC)c(OC)cc2cc2c3cc(OC)c(OC)cc3cc[n+]12 (tested in a mixture with another compound)
inactive: [4] 109 % of control | dose: 25.0 mg/kg/injection, schedule: Q01DX009 (ip), vehicle: Klucel (hydroxypropylcellulose) (HPC) 107 % of control | dose: 50.0 mg/kg/injection, schedule: Q01DX009 (ip), vehicle: Klucel (hydroxypropylcellulose) (HPC) 106 % of control and 123 % of control | dose: 100.0 mg/kg/injection, schedule: Q04DX003 (ip), vehicle: Klucel (hydroxypropylcellulose) (HPC) 100 % of control | dose: 200.0 mg/kg/injection, schedule: Q04DX003 (ip), vehicle: Klucel (hydroxypropylcellulose) (HPC) 110 % of control
